# Measured values as given in patent US4321384A, “Antihypertensive agents” (American Home Products Corporation, priority 1981, dated 1982).
# Structures can show the parent of a compound that is named as a salt.
# What was measured:
# rabbit aortic strips [1] = experiment: Ca+2 antagonism: relaxation of potassium-contracted rabbit aortic strips; format: cell-based; conditions: Oryctolagus cuniculus; 10^-5 M bath concentration; strips contracted with 100 millimoles potassium ion; read-out: percent relaxation (P.R.)
# Description: After a stable active tension has developed in the strip, as measured by Statham UC-2 force transducers and recorded on an eight channel Beckman Dynograph Polygraphic Recorder, an amount of the antagonist was added to the organ bath to make a 10^-5 molar concentration of antagonist. The […] effect, expressed as percent relaxation, was taken from the mean of at least two experiments. […] A Ca^+2 antagonist producing a 20 percent relaxation of aortic tissue in this test procedure at a 10^-5 molar bath concentration of the antagonist, generally produces a significant reduction in blood pressure when a sufficient amount is given to the spontaneously hypertensive rat. The following examples illustrate the preparation of a representative number of compounds of this invention. After each example, the Ca^+2 antagonist activity of the compound is presented in terms of percent relaxation (P.R.) at the stated concentration. Similarly, the antihypertensive activity is reported in terms of millimeters mercury (mmHg) blood pressure (B.P.) reduction at the stated time post 50 mg/kg oral dosing.
# [2] = tested on: spontaneously hypertensive rats; experiment: Systolic blood pressure lowering in spontaneously hypertensive rats; format: in vivo, rat
# Description: The in vivo blood pressure lowering ability of the compounds of this invention was established by measuring the systolic pressure of spontaneously hypertensive rats with a Decker Caudal Plethysmograph or similar sensor device. The compound being tested is administered to groups of four rats and their blood pressure is read prior to compound administration and at 1.5 and 4 hours after compound administration. Depending upon the behavior of the compound being tested, the schedule of blood pressure readings and route of administration is modified. Initially the compounds are administered orally but where compound solubility is a factor, the compounds may be administered parenterally (i.e. i.p., i.m., s.c., i.v., etc.) as desired. The compounds of this invention were initially administered orally at a standard testing dose of 50 mg/kg.
# The following examples illustrate the preparation of a representative number of compounds of this invention. After each example, the Ca^+2 antagonist activity of the compound is presented in terms of percent relaxation (P.R.) at the stated concentration. Similarly, the antihypertensive activity is reported in terms of millimeters mercury (mmHg) blood pressure (B.P.) reduction at the stated time post 50 mg/kg oral dosing.
# rabbit aortic strips [3] = experiment: Ca+2 antagonism: relaxation of potassium-contracted rabbit aortic strips; format: cell-based; conditions: Oryctolagus cuniculus; 10^-6 M bath concentration; strips contracted with 100 millimoles potassium ion; read-out: percent relaxation (P.R.)
# [4] = 1.5 hours post 50 mg/kg oral dosing
# [5] = 4 hours post 50 mg/kg oral dosing
Structure (SMILES),inhibition at 10 µM (rabbit aortic strips [1]),"blood pressure (B.P.) reduction [2, 4]","blood pressure (B.P.) reduction [2, 5]",inhibition at 1 µM (rabbit aortic strips [3])
"COC(=O)C1=C(C)NC2=C(C(=O)CN(C)C2)C1c1ccccc1[N+](=O)[O-] (centres unmarked) [Example 1, 1,4,5,6,7,8-Hexahydro-2,7-dimethyl-4-(2-nitrophenyl)-5-oxo-1,7-naphthyridine-3-carboxylic acid methyl ester]",14%,-27 mmHg,-21 mmHg,
"COC(=O)C1=C(C)NC2=C(C(=O)CN(C)C2)C1c1ccccc1C (centres unmarked) [Example 2, 1,4,5,6,7,8-Hexahydro-2,7-dimethyl-4-(2-methylphenyl)-5-oxo-1,7-naphthyridine-3-carboxylic acid methyl ester]",31%,-57 mmHg,-28 mmHg,
"COC(=O)C1=C(C)NC2=C(C(=O)CN(Cc3ccccc3)C2)C1c1ccccc1C (centres unmarked) [Example 3, 1,4,5,6,7,8-Hexahydro-2-methyl-4-(2-methylphenyl)-5-oxo-7-(phenylmethyl)-1,7-naphthyridine-3-carboxylic acid methyl ester]",,-23 mmHg,-41 mmHg,90%
"COC(=O)C1=C(C)NC2=C(C(=O)CN(C)C2)C1c1ccccc1C(F)(F)F (centres unmarked) [Example 4, 1,4,5,6,7,8-Hexahydro-2,7-dimethyl-5-oxo-4-[2-(trifluoromethyl)-phenyl]-1,7-naphthyridine-3-carboxylic acid methyl ester]",48%,-68 mmHg,-70 mmHg,
"COC(=O)C1=C(C)NC2=C(C(=O)CN(Cc3ccccc3)C2)C1c1ccccc1C(F)(F)F (centres unmarked) [Example 5, 1,4,5,6,7,8-Hexahydro-2-methyl-5-oxo-7-(phenylmethyl)-4-[2-(trifluoromethyl)phenyl]-1,7-naphthyridine-3-carboxylic acid methyl ester]",,,,40%
"COC(=O)C1=C(C)NC2=C(C(=O)CN(C)C2)C1c1cccc([N+](=O)[O-])c1 (centres unmarked) [Example 6, 1,4,5,6,7,8-Hexahydro-2,7-dimethyl-4-(3-nitrophenyl)-5-oxo-1,7-naphthyridine-3-carboxylic acid methyl ester]",35%,-85 mmHg,-47 mmHg,
"COC(=O)C1=C(C)NC2=C(C(=O)CNC2)C1c1ccccc1C (centres unmarked) [Example 7, 1,4,5,6,7,8-Hexahydro-2-methyl-4-(2-methylphenyl)-5-oxo-1,7-naphthyridine-3-carboxylic acid:methyl ester]",46%,-77 mmHg,-64 mmHg,
"COC(=O)C1=C(C)NC2=C(C(=O)CN(C)C2)C1c1ccccc1Cl (centres unmarked) [Example 8, 4-(2-chlorophenyl)-1,4,5,6,7,8-Hexahydro-2,7-dimethyl-5-oxo-1,7-naphthyridine-3-carboxylic acid methyl ester]",28.3%,-54 mmHg,-30 mmHg,
"COC(=O)C1=C(C)NC2=C(C(=O)CN(C)C2)C1c1c(Cl)cccc1Cl (centres unmarked) [Example 9, 4-(2,6-Dichlorophenyl)-1,4,5,6,7,8-hexahydro-2,7-dimethyl-5-oxo-1,7-naphthyridine-3-carboxylic acid methyl ester]",41.5%,-22 mmHg,-43 mmHg,
"COC(=O)C1=C(C)NC2=C(C(=O)CN(Cc3ccccc3)C2)C1c1cccc([N+](=O)[O-])c1 (centres unmarked) [Example 10, 1,4,5,6,7,8-Hexahydro-2-methyl-4-(3-nitrophenyl)-5-oxo-7-(phenylmethyl)-1,7-naphthyridine-3-carboxylic acid methyl ester]",,,,89.7%
"COC(=O)C1=C(C)NC2=C(C(=O)CN(C)C2)C1c1cc(C)ccc1C (centres unmarked) [Example 11, 4-(2,5-Dimethylphenyl)-1,4,5,6,7,8-hexahydro-2,7-dimethyl-5-oxo-1,7-naphthyridine-3-carboxylic acid methyl ester]",22%,,,
"COC(=O)C1=C(C)NC2=C(C(=O)CNC2)C1c1ccccc1C(F)(F)F (centres unmarked) [Example 12, 1,4,5,6,7,8-Hexahydro-2-methyl-5-oxo-4-[2-(trifluoromethyl)phenyl]-1,7-naphthyridine-3-carboxylic acid methyl ester]",89.1%,-88 mmHg,,
"COC(=O)C1=C(C)NC2=C(C(=O)CN(Cc3ccccc3)C2)C1c1cccc(C(F)(F)F)c1 (centres unmarked) [Example 14 intermediate, 1,4,5,6,7,8-hexahydro-2-methyl-5-oxo-7-(phenylmethyl)-4-[3-(trifluoromethyl)phenyl]-1,7-naphthyridine-3-carboxylic acid methyl ester hydrochloride]",,,,46.2%
"COC(=O)C1=C(C)NC2=C(C(=O)CNC2)C1c1cccc(C(F)(F)F)c1 (centres unmarked) [Example 14, 1,4,5,6,7,8-Hexahydro-2-methyl-5-oxo-4-[3-(trifluoromethyl)phenyl]-1,7-naphthyridine-3-carboxylic acid methyl ester]",84%,-51 mmHg,-43 mmHg,
"COC(=O)C1=C(C)NC2=C(C(=O)CN(Cc3ccccc3)C2)C1c1ccccc1F (centres unmarked) [Example 15 intermediate, 4-(2-fluorophenyl)-1,4,5,6,7,8-hexahydro-2-methyl-5-oxo-7-(phenylmethyl)-1,7-naphthyridine-3-carboxylic acid methyl ester hydrochloride]",,,,48%
"COC(=O)C1=C(C)NC2=C(C(=O)CNC2)C1c1ccccc1F (centres unmarked) [Example 15, 4-(2-Fluorophenyl)-1,4,5,6,7,8-hexahydro-2-methyl-5-oxo-1,7-naphthyridine-3-carboxylic acid methyl ester]",54%,-45 mmHg,,
"COC(=O)C1=C(C)NC2=C(C(=O)CN(C)C2)C1c1cccc(C#N)c1 (centres unmarked) [Example 16, 4-(3-Cyanophenyl)-1,4,5,6,7,8-Hexahydro-2,7-dimethyl-5-oxo-1,7-naphthyridine-3-carboxylic acid methyl ester]",66%,-53 mmHg,,
"COC(=O)C1=C(C)NC2=C(C(=O)CN(C)C2)C1c1cccc(C)c1C (centres unmarked) [Example 17, 4-(2,3-Dimethylphenyl)-1,4,5,6,7,8-hexahydro-2,7-dimethyl-5-oxo-1,7-naphthyridine-3-carboxylic acid methyl ester]",54%,,-40 mmHg,
"CCCCc1ccccc1C1C(C(=O)OC)=C(C)NC2=C1C(=O)CN(Cc1ccccc1)C2 (centres unmarked) [Example 18, 4-[2-(n-butyl)phenyl]-1,4,5,6,7,8-Hexahydro-2-methyl-5-oxo-7-(phenylmethyl)-1,7-naphthyridine-3-carboxylic acid methyl ester]",,,,61%
"CCCCc1ccccc1C1C(C(=O)OC)=C(C)NC2=C1C(=O)CNC2 (centres unmarked) [Example 19, 4-[2-(n-butyl)phenyl]-1,4,5,6,7,8-hexahydro-2-methyl-5-oxo-1,7-naphthyridine-3-carboxylic acid methyl ester]",49.2%,-24 mmHg,,
"COC(=O)C1=C(C)NC2=C(C(=O)CN(Cc3ccccc3)C2)C1c1cccc(C)c1C (centres unmarked) [Example 20, 4-(2,3-dimethylphenyl)-1,4,5,6,7,8-hexahydro-2-methyl-5-oxo-7-(phenylmethyl)-1,7-naphthyridine-3-carboxylic acid methyl ester]",80.4%,-24 mmHg,-39 mmHg,33.3%
"COC(=O)C1=C(C)NC2=C(C(=O)CNC2)C1c1cccc(C)c1C (centres unmarked) [Example 21, 4-(2,3-dimethylphenyl)-1,4,5,6,7,8-hexahydro-2-methyl-5-oxo-1,7-naphthyridine-3carboxylic acid methyl ester]",76.7%,-42 mmHg,-45 mmHg,
"CC1=C(C(=O)OCCN(C)Cc2ccccc2)C(c2ccccc2C(F)(F)F)C2=C(CN(Cc3ccccc3)CC2=O)N1 (centres unmarked) [Example 22, 1,4,5,6,7,8-Hexahydro-2-methyl-5-oxo-7-phenylmethyl-4-[2-(trifluoromethyl)phenyl]-1,7-naphthyridine-3-carboxylic acid, 2-(N-benzyl-N-methylamino)ethylester]",,-74 mmHg,-68 mmHg,55.6%
